# Measurements taken from patent US9464066B2, “Deuterated compounds useful for treating neurodegenerative diseases” (PharmatrophiX, Inc., priority 2009, dated 2016).
# Tested on: hippocampal neurons
# Experiment: Measurement of activity relative to BDNF: prevention of degeneration of hippocampal neurons
# Format: cell-based
# Settings: hippocampal neurons from embryological day 16 mice, assessed 48 hours following cell seeding; BDNF maximum defined as 100%; baseline (CM) approximately 40%
# Protocol: Compounds of the present application are tested for their ability to prevent the degeneration of hippocampal neurons as described in Massa et al J Neurosci. (2006) 26(20):5288-300. In brief, hippocampal neurons are isolated from embryological day 16 mice and seeded in 96-well tissue culture plates under conditions in which they degenerated in the absence of neurotrophin receptor ligands. Neuronal degeneration is assessed using morphological criteria 48 hours following cell seeding. The neurotrophins brain-derived neurotrophic factor (BDNF) and nerve growth factor (NGF) serve as positive controls. The maximum cell death preventing activity of BDNF is defined as 100% neurotrophic activity. The efficacy of NGF is 80% of that of BDNF. The neurotrophic activity of the test compounds at each applied concentration is quantitated in terms of a percentage of the maximum BDNF-supported survival level. In the presence of culture medium (CM) and the absence of BDNF or compounds, survival is approximately 40% of the BDNF maximum effect and this is regarded as baseline survival. For each compound, dose-response curves are generated and the EC50 and maximum survival percentage are derived.
substance,measurement,value
"NGF: neurotrophin nerve growth factor, serves as positive control in the hippocampal neuron survival assay",efficacy (neurotrophic activity as percentage of the maximum BDNF-supported survival),80%
